The source of these data is US20260152533A1, “COMBINATION INHIBITORS FOR TREATING FIBROSIS” (Memorial Sloan-Kettering Cancer Center, priority 2021, published 2026).

What all share (assay type): cell-based, mouse
In test [1] the test system is NIH-3T3 cells. The experiment in a line: Growth experiments, NIH-3T3 cells. To be noted: for rescue of TGFβ-induced growth defect: TGFβ, 0.2, 1 or 5 mM metabolite. The text has this:
NIH-3T3 cells were obtained from ATCC (CRL-1658); 293 T cells were obtained from ATCC (CRL-3216). PSCs were isolated from C57BL/6 mice by differential centrifugation as previously described^49 and their mesenchymal origin was validated by analyzing the expression of various mesenchymal and epithelial markers. MFBs were isolated from FVB/N mice by differential centrifugation as previously described^50. DB7 mouse breast cancer cells were obtained from Alexander Borowsky (University of California Davis Comprehensive Cancer Center, Sacramento, CA, USA) through an MTA to Ohio State University (OSU). KPC (Kras^LSL-G12D; Trp53^LSL-R172H; Pdx1-Cre) mouse PDAC cells were a gift from Scott Lowe (Memorial Sloan Kettering Cancer Center. (MSKCC)). All cells were cultured at 37° C. in 5% carbon dioxide (CO2) and 20% oxygen (O2) and were maintained in Dulbecco's Modified Eagles medium (DMEM) (25 mM D-glucose, 2 mM L-glutamine) supplemented with 10% fetal bovine serum (FBS) (Gemini), 100 units/ml penicillin and 100 μg/ml streptomycin. Primary PSC and MFB cells were kept in culture for no more than ten passages. Experiments with iCAFs and myCAFs were performed as previously described^29. In brief, qPSCs were generated by culturing PSCs in a dome of GFR Matrigel (Corning) in DMEM; iCAFs were generated by culturing PSCs in a dome of GFR Matrigel in DMEM conditioned by KPC cells for 48 h; myCAFs were generated by monolayer culture of PSCs. Differentiation was validated by analyzing the expression of iCAF/myCAF markers^29. For experiments with different glutamine concentrations, cells were seeded in regular DMEM and the medium was changed 5-6 hours later or the following day to glucose and glutamine-free DMEM supplemented with 10% dialyzed FBS (Gemini) and 20 mM D-glucose, 2 mM L-glutamine (100%), 0.4 mM L-glutamine (20%) or 0.2 mM L-glutamine (10%). All media were prepared by the Media Preparation Facility at MSKCC. Cells were verified as mycoplasma-free by the MycoAlert Mycoplasma Detection Kit (Lonza).
(§1) A total of 0.2×10^5 cells/well were plated in 24-well culture plates and media was changed and treatments started 5-6 hours later. Cell numbers at the start of treatment (day 0 “d 0”) and 1, 2 and 3 days later were counted using the Multisizer 4e (Beckman) and normalized to the cell number at d 0. In co-culture assays, a fraction of the cell population was analyzed by flow cytometry for GFP expression, and the rest counted with the Multisizer 4e. The number of KPC-GFP cells was determined by multiplying the fraction of GFP+ cells with the total number of cells.

Test [2] deals with NIH-3T3 cells. The experiment in a line: Quantification of gene expression (qPCR), fibroblasts. To be noted: for Col1a1 mRNA expression: PC-deleted cells, 10% Gln, 48 hours (FIG. 5D, FIG. 11N). The procedure: Total RNA was isolated from fibroblasts with Trizol (Life Technologies) according to the manufacturer's instructions, and […] RNA was used for cDNA synthesis using iScript (Bio-Rad). Real-time qPCR analysis was performed in technical triplicates using 1:40 diluted cDNAs and 0.1 μM forward and reverse primers together with Power SYBR Green (Life Technologies) in a QuantStudio 7 Flex (Applied Biosystems). Gene expression was quantified in Microsoft Excel 365 as relative expression ratio using primer efficiencies calculated by a relative standard curve. The geometric mean of the endogenous control genes 18 s, Actb and Rplp0 was used as reference sample.

For test [3], the system named is NIH-3T3 cells. The experiment in a line: tRNA charging assay, NIH-3T3 cells. How it is done: Charging status of the indicated tRNA isodecoders was measured as previously described^20. In brief, Trizol-chloroform extracts were precipitated with 2.7× volumes of cold ethanol in the presence of 30 μg GlycoBlue (ThermoFisher) overnight. Samples were resuspended in 0.3 M acetate buffer (pH 4.5) with 10 mM ethylenediamine tetraacetic acid (EDTA) and precipitated overnight. Samples were resuspended in 10 mM acetate buffer with 1 mM EDTA. 2 μg of each RNA sample was treated with 10 mM of either sodium periodate (Sigma) (‘oxidized sample’) or sodium chloride (‘non-oxidized sample’) and incubated for 20 minutes at room temperature in the dark. Reactions were quenched with glucose for 15 minutes. Yeast Phe-tRNA (Sigma) was spiked into each sample, followed by ethanol precipitation. Samples were resuspended in 50 mM Tris buffer (pH 9) and incubated for 50 minutes at 37° C., quenched with acetate buffer and precipitated. […] Reverse transcription was performed with SuperScript IV reverse transcriptase (Thermo Scientific) according to the manufacturer's instructions, with a primer complementary to the DNA adaptor. cDNA samples were subjected to qPCR with tRNA isodecoder-specific primer pairs listed in Supplementary Table 1. Ct values obtained with primers specific for yeast Phe-tRNA were subtracted from Ct values obtained with isodecoder-specific primers. The charged fraction was calculated based on the relative difference between the delta-Ct value of a non-oxidized (representing total) and oxidized (representing charged) sample for each primer pair.

Test [4] has as its system NIH-3T3 cells. The experiment in a line: Translation assay (OPP), NIH-3T3 cells. Conditions: TGFβ. The procedure:
Cells were treated as indicated and incubated with 20 μM O-propargyl-puromycin (OPP, Thermo Scientific) for the last 1 hour of the experiment. Cells were harvested by trypsinization and fixed with methanol at −20° C., followed by permeabilization with 0.5% Triton X-100 in phosphate-buffered saline (PBS).

Test [5] has as its system NIH-3T3 cells. The experiment in a line: Collagen abundance in ECM derived from confluent NIH-3T3 cells. Conditions: 100% and 50% Gln, TGFβ. The procedure:
Culture plates were coated with 0.1% gelatin (Sigma) and treated with 1% glutaraldehyde (Sigma) and 1 M ethanolamine (Sigma). Confluent NIH-3T3 cells, MFBs or PSCs were grown for 6 days on coated plates in the presence of […] sodium ascorbate (Sigma) and treated as indicated, and the medium was replaced every other day. Plates were decellularized with 20 mM ammonium hydroxide/0.5% Triton-X 100 for 5 min on a rotating platform. Three times the volume of PBS was added, and ECM was equilibrated overnight at 4° C., followed by four additional PBS washes. For western blot, preheated sample buffer supplemented with 1 mM dithiothreitol (DTT) was added, ECM was scraped off and boiled, and proteins were separated by SDS-PAGE followed by immunoblotting. To measure collagen abundance, fibroblast-derived ECM was stained with the Picro Sirius Red Stain Kit (Abcam) according to the manufacturer's instructions. The stain was extracted with 0.1 M sodium hydroxide (NaOH) and optical density was measured at 550 nm using a microplate reader. Differences in cell number were controlled for by growing cells on separate plates under the same experimental conditions.

Test [6] deals with mammary fibroblasts (MFBs). The experiment in a line: Growth experiments, MFBs. Conditions: 20% Gln, TGFβ.
From the text: NIH-3T3 cells were obtained from ATCC (CRL-1658); 293 T cells were obtained from ATCC (CRL-3216). PSCs were isolated from C57BL/6 mice by differential centrifugation as previously described^49 and their mesenchymal origin was validated by analyzing the expression of various mesenchymal and epithelial markers. MFBs were isolated from FVB/N mice by differential centrifugation as previously described^50. DB7 mouse breast cancer cells were obtained from Alexander Borowsky (University of California Davis Comprehensive Cancer Center, Sacramento, CA, USA) through an MTA to Ohio State University (OSU). KPC (Kras^LSL-G12D; Trp53^LSL-R172H; Pdx1-Cre) mouse PDAC cells were a gift from Scott Lowe (Memorial Sloan Kettering Cancer Center. (MSKCC)). […]
as §1

Turning to `COC(=O)CC[C@H](N)C(=O)OC` [dm-Glu, L-glutamic acid dimethylester], in test [1] (10% Gln, 3 days), the “rescue of TGFβ-induced growth defect” value is reported as “sufficient to restore”. In test [2], the “Col1a1 mRNA expression” value is reported as “rescued”.

Take `COC(=O)CCC(=O)C(=O)OC` [dm-αKG, dimethyl alpha-ketoglutarate]: in test [1] (10% Gln, 3 days), the “rescue of TGFβ-induced growth defect” value is reported as “able to rescue”. Also, the “charging of glutamine-tRNA” value in test [3] (10% Gln, TGFβ 2 ng/mL, dm-αKG 5 mM with or without MSO 2 mM, 48 hours (FIG. 2A)) is “restored”. Moreover, the translation result in test [4] (10% Gln, dm-αKG (FIG. 2B)) is recorded as “promoted”. Moreover, the “Col1a1 mRNA expression” value in test [2] is given as “rescued”.

As for “TGFβ: transforming growth-factor beta; TGFβ-1 purchased from Peprotech”, the cell proliferation result in test [1] (10% Gln, TGFβ) is “ceased to proliferate”; in test [1] (100% and 50% Gln, TGFβ 2 ng/mL, 3 days) it was “did not change”; in test [6], “unable to proliferate”. In addition, the “charging state of glutamine-tRNA” value in test [3] (low Gln (10%), TGFβ, 48 hours (FIG. 1D)) is recorded as “profound uncharging”. Further, the bulk translation result in test [4] (low Gln (10%), 48 hours, compared to control cells (FIG. 1F)) is “reduced”. Moreover, the “collagen I levels in the ECM secreted by confluent fibroblasts” value in test [5] was “upregulated”. For the same molecule, the PC transcript levels result in test [2] (all fibroblast types analysed, 100% Gln, TGFβ 24 hours) is “reduced”.
